Assay results from ChEMBL document CHEMBL1201862, “PubChem BioAssay data set” (2004).
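Growth conditions: 96-well plates. Treatment: test compound, 48 hours, 5 concentrations. Analysis: linear interpolation between bracketing concentrations; unreached endpoints set to highest concentration. GI50 = concentration required for 50% inhibition of growth.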 The source made the active and inactive calls. Cut-off read from the data, not from the text of the source: active = GI50 up to about 1.1 µM and inactive = higher.

Assays:
Experiment in all cases: inhibition of tumour cell growth, NCI panel, 48 h
OVCAR-3 = tested on: OVCAR-3
IGROV-1 = tested on: IGROV-1
RXF 393 = tested on: RXF 393
UO-31 = tested on: UO-31
Malme-3M = tested on: Malme-3M
SK-MEL-28 = tested on: SK-MEL-28
M14 = tested on: M14
ACHN = tested on: ACHN
UACC-62 = tested on: UACC-62
NCI-H23 = tested on: NCI-H23
SR = tested on: SR
UACC-257 = tested on: UACC-257
SNB-75 = tested on: SNB-75
COLO 205 = tested on: COLO 205
SW-620 = tested on: SW-620
A549 = tested on: A549
SF-268 = tested on: SF-268
CCRF-CEM = tested on: CCRF-CEM
MDA-N = tested on: MDA-N

| SMILES | GI50 (OVCAR-3) | GI50 (IGROV-1) | GI50 (RXF 393) | GI50 (UO-31) | GI50 (Malme-3M) | GI50 (SK-MEL-28) | GI50 (M14) | GI50 (ACHN) | GI50 (UACC-62) | GI50 (NCI-H23) | GI50 (SR) | GI50 (UACC-257) | GI50 (SNB-75) | GI50 (COLO 205) | GI50 (SW-620) | GI50 (A549) | GI50 (SF-268) | GI50 (CCRF-CEM) | GI50 (MDA-N) |
| --- | --- | --- | --- | --- | --- | --- | --- | --- | --- | --- | --- | --- | --- | --- | --- | --- | --- | --- | --- |
| c1ccc(COc2ccc3[nH]c4c5c6ccccc6nc-5c[nH]c4c3c2)cc1 | 15.9 µM (inactive) | 13.8 µM (inactive) | 11.2 µM (inactive) | 18.7 µM (inactive) | 13.5 µM (inactive) | 17.2 µM (inactive) | 13.7 µM (inactive) | 17.5 µM (inactive) | 19.6 µM (inactive) | 18.3 µM (inactive) | 8.95 µM (inactive) | 18 µM (inactive) | 12.7 µM (inactive) | 19 µM (inactive) | 17.3 µM (inactive) | 17.8 µM (inactive) | 17 µM (inactive) | 11.4 µM (inactive) | – |
| O=C(NCC(O)COc1ccccc1)c1ccccc1O (centres undefined) | > 100 µM (inactive) | > 100 µM (inactive) | > 100 µM (inactive) | 47.8 µM (inactive) | > 100 µM (inactive) | > 100 µM (inactive) | > 100 µM (inactive) | > 100 µM (inactive) | 55 µM (inactive) | > 100 µM (inactive) | 87.7 µM (inactive) | > 100 µM (inactive) | – | > 100 µM (inactive) | > 100 µM (inactive) | > 100 µM (inactive) | – | 40.5 µM (inactive) | > 100 µM (inactive) |
| O=[N+]([O-])C1C2C=CC(C2)[C@H]1c1ccco1 (some centres undefined) | > 100 µM (inactive) | > 100 µM (inactive) | > 100 µM (inactive) | > 100 µM (inactive) | > 100 µM (inactive) | – | > 100 µM (inactive) | > 100 µM (inactive) | > 100 µM (inactive) | 0.384 µM (active) | > 100 µM (inactive) | > 100 µM (inactive) | > 100 µM (inactive) | > 100 µM (inactive) | > 100 µM (inactive) | > 100 µM (inactive) | > 100 µM (inactive) | > 100 µM (inactive) | – |
| N#CC(C#N)=C(N)/C(C#N)=C\c1ccnc2ccccc12 | 31.3 µM (inactive) | 22.1 µM (inactive) | 18.6 µM (inactive) | 18.2 µM (inactive) | 24.8 µM (inactive) | 20.2 µM (inactive) | 23 µM (inactive) | 40.6 µM (inactive) | 18.9 µM (inactive) | 19.9 µM (inactive) | 16.4 µM (inactive) | 24.3 µM (inactive) | 31.4 µM (inactive) | > 100 µM (inactive) | 3.49 µM (inactive) | > 100 µM (inactive) | 18.5 µM (inactive) | 3.21 µM (inactive) | – |
| CCC(=O)C(C(=O)CC)c1c(OC(=O)c2ccccc2)ccc(O)c1C(=O)OC | > 100 µM (inactive) | > 100 µM (inactive) | > 100 µM (inactive) | > 100 µM (inactive) | – | > 100 µM (inactive) | > 100 µM (inactive) | > 100 µM (inactive) | > 100 µM (inactive) | > 100 µM (inactive) | 89.9 µM (inactive) | > 100 µM (inactive) | 90.8 µM (inactive) | > 100 µM (inactive) | > 100 µM (inactive) | > 100 µM (inactive) | > 100 µM (inactive) | > 100 µM (inactive) | – |
| CC(=O)c1ccc(N2CCN(C3=CC(=O)c4c(O)ccc(O)c4C3=O)CC2)cc1 | 39.9 µM (inactive) | 45.9 µM (inactive) | 47.8 µM (inactive) | 4.42 µM (inactive) | 4.36 µM (inactive) | > 100 µM (inactive) | 40.7 µM (inactive) | – | 31.4 µM (inactive) | 34 µM (inactive) | 22.5 µM (inactive) | > 100 µM (inactive) | 24.2 µM (inactive) | 35.5 µM (inactive) | 35.6 µM (inactive) | 19 µM (inactive) | 33 µM (inactive) | 15.2 µM (inactive) | – |
| CC1OC(OCC2COC(O)(Oc3c(-c4ccc(O)c(O)c4)oc4cc(O)cc(O)c4c3=O)C(O)C2O)C(O)C(O)C1O (centres undefined) | > 100 µM (inactive) | > 100 µM (inactive) | > 100 µM (inactive) | > 100 µM (inactive) | > 100 µM (inactive) | > 100 µM (inactive) | > 100 µM (inactive) | > 100 µM (inactive) | > 100 µM (inactive) | > 100 µM (inactive) | > 100 µM (inactive) | > 100 µM (inactive) | > 100 µM (inactive) | > 100 µM (inactive) | > 100 µM (inactive) | > 100 µM (inactive) | > 100 µM (inactive) | > 100 µM (inactive) | – |
| CC(=O)NNC1=NN(C(C)=O)C2(S1)C(=O)Nc1ccccc12 (centres undefined) | > 100 µM (inactive) | > 100 µM (inactive) | – | > 100 µM (inactive) | > 100 µM (inactive) | > 100 µM (inactive) | > 100 µM (inactive) | > 100 µM (inactive) | > 100 µM (inactive) | > 100 µM (inactive) | > 100 µM (inactive) | > 10 µM (inactive) | 65.8 µM (inactive) | – | > 100 µM (inactive) | – | > 100 µM (inactive) | > 100 µM (inactive) | > 100 µM (inactive) |
| CSc1nc2nccnc2c(=O)[nH]1 | – | > 100 µM (inactive) | > 100 µM (inactive) | > 100 µM (inactive) | > 100 µM (inactive) | > 100 µM (inactive) | > 100 µM (inactive) | > 100 µM (inactive) | > 100 µM (inactive) | > 100 µM (inactive) | > 100 µM (inactive) | > 100 µM (inactive) | > 100 µM (inactive) | > 100 µM (inactive) | > 100 µM (inactive) | > 100 µM (inactive) | > 100 µM (inactive) | > 100 µM (inactive) | – |
| C=C1CC[C@H]2C(C)=CC[C@H]3C(=C)C(=O)O[C@@H]3[C@@H]12 [EREMANTHIN] | – | > 100 µM (inactive) | – | > 100 µM (inactive) | > 100 µM (inactive) | > 100 µM (inactive) | > 100 µM (inactive) | > 100 µM (inactive) | > 100 µM (inactive) | > 100 µM (inactive) | > 100 µM (inactive) | > 100 µM (inactive) | – | 92 µM (inactive) | > 100 µM (inactive) | > 100 µM (inactive) | – | > 100 µM (inactive) | > 100 µM (inactive) |
| COc1ccc(C2ON(c3ccccn3)CC=C2C)cc1 (centres undefined) | > 100 µM (inactive) | > 100 µM (inactive) | > 100 µM (inactive) | 34.5 µM (inactive) | > 100 µM (inactive) | > 100 µM (inactive) | > 100 µM (inactive) | > 100 µM (inactive) | > 100 µM (inactive) | 78.3 µM (inactive) | 58.9 µM (inactive) | > 100 µM (inactive) | > 100 µM (inactive) | > 100 µM (inactive) | > 100 µM (inactive) | > 100 µM (inactive) | > 100 µM (inactive) | > 100 µM (inactive) | – |
| CNc1ncnc2c1nc(NC1CCCC1)n2C1OC(CO)C(O)C1O (centres undefined) | > 100 µM (inactive) | – | > 100 µM (inactive) | > 100 µM (inactive) | > 100 µM (inactive) | > 100 µM (inactive) | > 100 µM (inactive) | > 100 µM (inactive) | > 100 µM (inactive) | > 100 µM (inactive) | – | – | – | > 100 µM (inactive) | > 100 µM (inactive) | > 100 µM (inactive) | > 100 µM (inactive) | – | > 100 µM (inactive) |
| COc1ccc(-c2nc(-c3cnccn3)n(C3OC(CO)C(O)C(O)C3O)n2)cc1 (centres undefined) | > 100 µM (inactive) | > 100 µM (inactive) | > 100 µM (inactive) | > 100 µM (inactive) | – | > 100 µM (inactive) | > 100 µM (inactive) | – | > 100 µM (inactive) | > 100 µM (inactive) | > 100 µM (inactive) | > 100 µM (inactive) | > 100 µM (inactive) | > 100 µM (inactive) | > 100 µM (inactive) | > 100 µM (inactive) | > 100 µM (inactive) | > 100 µM (inactive) | > 100 µM (inactive) |
| OCCNCO | > 100 µM (inactive) | > 100 µM (inactive) | > 100 µM (inactive) | > 100 µM (inactive) | – | > 100 µM (inactive) | > 100 µM (inactive) | > 100 µM (inactive) | > 100 µM (inactive) | > 100 µM (inactive) | > 100 µM (inactive) | > 100 µM (inactive) | > 100 µM (inactive) | > 100 µM (inactive) | > 100 µM (inactive) | > 100 µM (inactive) | > 100 µM (inactive) | > 100 µM (inactive) | – |
| CCCCc1c2c(nc3c1CCC/C3=C\c1ccccc1)C(=O)CCC2 | 15.1 µM (inactive) | 18.6 µM (inactive) | 17 µM (inactive) | 24.5 µM (inactive) | 26 µM (inactive) | 19.8 µM (inactive) | 21.1 µM (inactive) | 25.7 µM (inactive) | 22.6 µM (inactive) | 24.2 µM (inactive) | 7.24 µM (inactive) | 17 µM (inactive) | 29.1 µM (inactive) | 22.8 µM (inactive) | 22 µM (inactive) | 25.6 µM (inactive) | 21.3 µM (inactive) | 17.4 µM (inactive) | – |
| NNc1nnc(CCCCCCCCc2nnc(NN)n2N)n1N | – | 55.3 µM (inactive) | > 100 µM (inactive) | > 100 µM (inactive) | – | > 100 µM (inactive) | > 100 µM (inactive) | > 100 µM (inactive) | – | 97.7 µM (inactive) | – | > 100 µM (inactive) | 60.3 µM (inactive) | > 100 µM (inactive) | > 100 µM (inactive) | > 100 µM (inactive) | 43.3 µM (inactive) | > 100 µM (inactive) | > 100 µM (inactive) |
